Experimental data from article PMC8694169 (Microbiology Spectrum, 2021).
Where two headings read alike, the source gives them in different places. Where a SMILES comes first, the peptide text is derived from it. Where no end group is shown, it is not given here.

How the values were obtained:
HLA-A*24:02 [1] = target: T1, HLA-A*24:02 (Homo sapiens, UniProt P04439, D101N/D140Y/D185E/E176V/E190D/F33S/G103R/G107R/I119L/I121M/I306V/K335N/L105A/L180Q/L300P/N151K/N90K/Q86E/Q94H/R106L/R138H/R89G/T104I/T345S/V100E/W191G/Y123F); test: cell-based; type: binding
[2] = test system: IFN-γ-producing CD8+ T cells; test: Intracellular IFN-γ staining (ICS) of spleen CD8+ T cells after immunization with liposomal peptides; type: in vivo, HLA-A*24:02 transgenic mice; settings: mice immunized with liposomal peptides + CpG; result in words
human lymphocytes = settings: epitopes of same sequence submitted as HLA-A*24:02-restricted pp1a-specific CTL epitopes; ref Virus Pathogen Database and Analysis Resource; cited from earlier work
HLA-A*24:02 [3] = target: T1, HLA-A*24:02; settings: ref Virus Pathogen Database and Analysis Resource; cited from earlier work
IFN-γ+ CD8+ T cells = test: Comparison of conserved top 4 peptides, ICS after immunization with 4-peptide mixture in liposomes; type: in vivo, HLA-A*24:02 transgenic mice; settings: eight mice immunized with mixture of pp1a-1417, -3104, -3792, -4229 in liposomes with CpG; spleen cells + peptide 5 h; one-way ANOVA; Fig. 5A
CD107a+ CD8+ T cells = test: Comparison of conserved top 4 peptides, CD107a on CD8+ T cells; type: in vivo, HLA-A*24:02 transgenic mice; settings: eight mice immunized with 4-peptide mixture in liposomes with CpG; spleen cells + 50 μM peptide 6 h; one-way ANOVA; Fig. 5B
[4] = […], mean ± SD, triplicate, repeated twice, ND = not detected, read-out: BL50 (half-maximal binding level, peptide concentration that yields 50% relative binding)

Compound: WFLLLSVCL [pp1a-2232]
- EC50 (HLA-A*24:02 [1]; [4]): 279 ± 12.6 µM

Compound: SYGADLKSF [pp1a-135]
- EC50 (HLA-A*24:02 [1]; [4]): 104 ± 17.7 µM

Compound: KFVCDNIKF [pp1a-1929]
- EC50 (HLA-A*24:02 [1]; [4]): 61.7 ± 1.6 µM

Compound: PFWITIAYI [pp1a-3137]
- EC50 (HLA-A*24:02 [1]; [4]): 103 ± 8.4 µM

Compound: MFVKHKHAF [pp1a-3627]
- EC50 (HLA-A*24:02 [1]; [4]): 241 ± 33.6 µM

Compound: TFFKLVNKF [pp1a-677]
- EC50 (HLA-A*24:02 [1]; [4]): 55.9 ± 3.3 µM

Compound: GYKSVNITF [pp1a-835]
- EC50 (HLA-A*24:02 [1]; [4]): 0.1 µM
- detection of IFN-γ-producing CD8+ T cells in immunized mice [2]: significant numbers

Compound: NYLKRRVVF [pp1a-3159]
- EC50 (HLA-A*24:02 [1]; [4]): 114 ± 5.3 µM

Compound: DYLVSTQEF [pp1a-3812]
- EC50 (HLA-A*24:02 [1]; SD): 0.9 ± 0.1 µM

Compound: NFTIKGSFL [pp1a-3396]
- EC50 (HLA-A*24:02 [1]; [4]): 134 ± 7.6 µM

Compound: FYVLGLAAI [pp1a-2338]
- EC50 (HLA-A*24:02 [1]; [4]): 0.7 ± 0.1 µM
- detection of IFN-γ-producing CD8+ T cells in immunized mice [2]: significant numbers

Compound: FYWFFSNYL [pp1a-3153]
- EC50 (HLA-A*24:02 [1]; [4]): 3.9 ± 1.3 µM
- detection of IFN-γ-producing CD8+ T cells in immunized mice [2]: significant numbers

Compound: MFTPLIQPI [pp1a-3030]
- EC50 (HLA-A*24:02 [1]; [4]): 251 ± 88.7 µM

Compound: LYCIDGALL [pp1a-1845]
- EC50 (HLA-A*24:02 [1]; [4]): 38.5 ± 8.2 µM
- detection of IFN-γ-producing CD8+ T cells in immunized mice [2]: significant numbers

Compound: YFIKGLNNL [pp1a-4229]
- EC50 (HLA-A*24:02 [1]; [4]): 32.1 ± 1.9 µM
- detection of IFN-γ-producing CD8+ T cells in immunized mice [2]: significant numbers

Compound: PYCYDTNVL [pp1a-2931]
- EC50 (HLA-A*24:02 [1]; [4]): 6.8 ± 1 µM

Compound: VYEKLKPVL [pp1a-620]
- EC50 (HLA-A*24:02 [1]; [4]): 264 ± 21.4 µM

Compound: MFLARGIVF [pp1a-3752]
- EC50 (HLA-A*24:02 [1]; [4]): 24.2 ± 1.5 µM
- detection of IFN-γ-producing CD8+ T cells in immunized mice [2]: significant numbers

Compound: YYTSNPTTF [pp1a-1536]
- EC50 (HLA-A*24:02 [1]; [4]): 0.05 µM

Compound: SYSGQSTQL [pp1a-1515]
- EC50 (HLA-A*24:02 [1]; [4]): 45.8 ± 10.5 µM

Compound: YYKKDNSYF [pp1a-1899]
- EC50 (HLA-A*24:02 [1]; [4]): 0.3 µM
- detection of IFN-γ-producing CD8+ T cells in immunized mice [2]: significant numbers
- result in T cell assays using human lymphocytes (human lymphocytes): positive

Compound: AFGLVAEWF [pp1a-2320]
- EC50 (HLA-A*24:02 [1]; [4]): 135 ± 39.1 µM

Compound: MFDAYVNTF [pp1a-2590]
- EC50 (HLA-A*24:02 [1]; [4]): 7.7 ± 0.6 µM
- detection of IFN-γ-producing CD8+ T cells in immunized mice [2]: significant numbers

Compound: LYDKLVSSF [pp1a-1182]
- EC50 (HLA-A*24:02 [1]; [4]): 1 ± 0.3 µM
- detection of IFN-γ-producing CD8+ T cells in immunized mice [2]: significant numbers
- result in T cell assays using human lymphocytes (human lymphocytes): positive

Compound: CC(C)C[C@H](NC(=O)[C@H](CC(C)C)NC(=O)[C@H](CS)NC(=O)[C@H](Cc1ccccc1)NC(=O)[C@H](CC(C)C)NC(=O)CNC(=O)[C@H](Cc1ccccc1)NC(=O)[C@H](Cc1ccc(O)cc1)NC(=O)[C@@H](N)CS)C(=O)O [pp1a-3792] (H-CYFGLFCLL-OH; N-terminus and C-terminus assumed)
- detection of IFN-γ-producing CD8+ T cells in immunized mice [2]: significant numbers

Compound: DYQGKPLEF [pp1a-954]
- EC50 (HLA-A*24:02 [1]; [4]): 126 ± 23.9 µM

Compound: VFLFVAAIF [pp1a-2779]
- EC50 (HLA-A*24:02 [1]; [4]): 8.6 ± 0.4 µM
- detection of IFN-γ-producing CD8+ T cells in immunized mice [2]: significant numbers

Compound: GYVTHGLNL [pp1a-1451]
- EC50 (HLA-A*24:02 [1]; [4]): 109 ± 8.9 µM

Compound: YFTEQPIDL [pp1a-1906]
- EC50 (HLA-A*24:02 [1]; [4]): 113 ± 9.4 µM

Compound: LYIDINGNL [pp1a-1255]
- EC50 (HLA-A*24:02 [1]; [4]): 40.4 ± 8.6 µM
- detection of IFN-γ-producing CD8+ T cells in immunized mice [2]: significant numbers

Compound: NFNQHEVLL [pp1a-1137]
- EC50 (HLA-A*24:02 [1]; [4]): 55.3 ± 2 µM

Compound: IYLYLTFYL [pp1a-3108]
- EC50 (HLA-A*24:02 [1]; [4]): 100 ± 13.8 µM

Compound: FYENAFLPF [pp1a-3606]
- EC50 (HLA-A*24:02 [1]; [4]): 0.02 ± 0.01 µM
- detection of IFN-γ-producing CD8+ T cells in immunized mice [2]: significant numbers

Compound: KFLTENLLL [pp1a-1247]
- EC50 (HLA-A*24:02 [1]; [4]): 33.4 ± 1.9 µM

Compound: NFSKLINII [pp1a-2222]
- EC50 (HLA-A*24:02 [1]; [4]): 181 ± 32.5 µM

Compound: AFLPFAMGI [pp1a-3610]
- EC50 (HLA-A*24:02 [1]; [4]): 183 ± 8.2 µM

Compound: SYLFQHANL [pp1a-1733]
- EC50 (HLA-A*24:02 [1]; [4]): 3 ± 0.4 µM

Compound: MYASAVVLL [pp1a-3684]
- EC50 (HLA-A*24:02 [1]; [4]): 0.4 ± 0.1 µM
- detection of IFN-γ-producing CD8+ T cells in immunized mice [2]: significant numbers
- result in T cell assays using human lymphocytes (human lymphocytes): negative
- result in the binding assay (HLA-A*24:02 [3]): positive

Compound: DYGARFYFY [pp1a-1417]
- EC50 (HLA-A*24:02 [1]; [4]): 16.1 ± 0.8 µM
- detection of IFN-γ-producing CD8+ T cells in immunized mice [2]: significant numbers

Compound: AYILFTRFF [pp1a-2330]
- EC50 (HLA-A*24:02 [1]; [4]): 0.8 ± 0.1 µM
- detection of IFN-γ-producing CD8+ T cells in immunized mice [2]: significant numbers
- result in T cell assays using human lymphocytes (human lymphocytes): positive

Compound: YYRSLPGVF [pp1a-3010]
- EC50 (HLA-A*24:02 [1]; [4]): 122 ± 18.8 µM

Compound: TFCAGSTFI [pp1a-2457]
- EC50 (HLA-A*24:02 [1]; [4]): 127 ± 20.2 µM

Compound: AFYILPSII [pp1a-1352]
- EC50 (HLA-A*24:02 [1]; [4]): 64.4 ± 9.2 µM

Compound: QYELKHGTF [pp1a-1813]
- EC50 (HLA-A*24:02 [1]; [4]): 141 ± 8 µM

Compound: KYLYFIKGL [pp1a-4226]
- EC50 (HLA-A*24:02 [1]; SD): 109 ± 1.3 µM

Compound: IFGTVYEKL [pp1a-616]
- EC50 (HLA-A*24:02 [1]; [4]): 122 ± 18 µM

Compound: DFVKATCEF [pp1a-335]
- EC50 (HLA-A*24:02 [1]; [4]): 127 ± 3.8 µM

Compound: TFNGECPNF [pp1a-265]
- EC50 (HLA-A*24:02 [1]; [4]): 1.7 ± 0.4 µM
- detection of IFN-γ-producing CD8+ T cells in immunized mice [2]: significant numbers
- result in T cell assays using human lymphocytes (human lymphocytes): positive

Compound: AFEKMVSLL [pp1a-3907]
- EC50 (HLA-A*24:02 [1]; [4]): 114 ± 3.1 µM

Compound: TFDNLKTLL [pp1a-1552]
- EC50 (HLA-A*24:02 [1]; [4]): 96.1 ± 1.6 µM

Compound: FYLTNDVSF [pp1a-3114]
- EC50 (HLA-A*24:02 [1]; [4]): 0.01 µM
- detection of IFN-γ-producing CD8+ T cells in immunized mice [2]: significant numbers
- result in T cell assays using human lymphocytes (human lymphocytes): negative
- result in the binding assay (HLA-A*24:02 [3]): positive

Compound: AFVETVKGL [pp1a-486]
- EC50 (HLA-A*24:02 [1]; [4]): 278 ± 49.8 µM

Compound: TFHLDGEVI [pp1a-1543]
- EC50 (HLA-A*24:02 [1]; [4]): 100 ± 6.8 µM

Compound: QYGRSGETL [pp1a-96]
- EC50 (HLA-A*24:02 [1]; [4]): 124 ± 10.9 µM

Compound: LFVAAIFYL [pp1a-2781]
- EC50 (HLA-A*24:02 [1]; [4]): 183 ± 8.2 µM

Compound: YYHTTDPSF [pp1a-1634]
- EC50 (HLA-A*24:02 [1]; [4]): 0.04 µM

Compound: DYKHYTPSF [pp1a-1971]
- EC50 (HLA-A*24:02 [1]; [4]): 58.4 ± 11.7 µM

Compound: VYSVIYLYL [pp1a-3104]
- EC50 (HLA-A*24:02 [1]; [4]): 0.5 µM
- detection of IFN-γ-producing CD8+ T cells in immunized mice [2]: significant numbers
- dominance in induction of peptide-specific IFN-γ+ CD8+ T cells among conserved top 4 peptides (IFN-γ+ CD8+ T cells): far superior to all other peptides
- dominance in CD107a induction of CD8+ T cells among conserved top 4 peptides (CD107a+ CD8+ T cells): statistically predominant over pp1a-1417 and -4229
- result in T cell assays using human lymphocytes (human lymphocytes): negative
- result in the binding assay (HLA-A*24:02 [3]): positive

Compound: LFLMSFTVL [pp1a-3084]
- EC50 (HLA-A*24:02 [1]; [4]): 100 ± 7.6 µM

Compound: FFSYFAVHF [pp1a-2350]
- EC50 (HLA-A*24:02 [1]; [4]): 1.4 ± 0.1 µM
- detection of IFN-γ-producing CD8+ T cells in immunized mice [2]: significant numbers

Compound: KFKEGVEFL [pp1a-634]
- EC50 (HLA-A*24:02 [1]; [4]): 79.6 ± 6.6 µM
- detection of IFN-γ-producing CD8+ T cells in immunized mice [2]: significant numbers
